In ChEMBL document CHEMBL1149037, “Vanicosides A and B, protein kinase C inhibitors from Polygonum pensylvanicum” (J Nat Prod, 1994):
Values after ≈ are worked out from the molar mass of the structure shown. Active and inactive are the calls of the source. The rule behind the calls is not given here.

Tests used:
[1] = Inhibition of PKC
MCF = assay: Cytotoxicity against human MCF cells; assay type: functional, cell-based

IC50 [1] [µg/mL] | SMILES | Activity (MCF)
44 (≈ 44 µM) | COc1cc(/C=C/C(=O)OC[C@H]2O[C@@H](O[C@]3(COC(=O)/C=C/c4ccc(O)cc4)O[C@H](COC(=O)/C=C/c4ccc(O)cc4)[C@@H](O)[C@@H]3OC(=O)/C=C/c3ccc(O)cc3)[C@H](OC(C)=O)[C@@H](O)[C@@H]2O)ccc1O [VANICOSIDE A] | Active
31 (≈ 32.4 µM) | COc1cc(/C=C/C(=O)OC[C@H]2O[C@H](O[C@]3(COC(=O)/C=C/c4ccc(O)cc4)O[C@H](COC(=O)/C=C/c4ccc(O)cc4)[C@@H](O)[C@@H]3OC(=O)/C=C/c3ccc(O)cc3)[C@H](O)[C@@H](O)[C@@H]2O)ccc1O [VANICOSIDE B] | Active
> 50 | COc1cc(/C=C/C(=O)OC[C@H]2O[C@@H](O[C@]3(COC(=O)/C=C/c4ccc(OC(C)=O)cc4)O[C@H](COC(=O)/C=C/c4ccc(OC(C)=O)cc4)[C@@H](OC(C)=O)[C@@H]3OC(=O)/C=C/c3ccc(OC(C)=O)cc3)[C@H](OC(C)=O)[C@@H](OC(C)=O)[C@@H]2OC(C)=O)ccc1OC(C)=O | 
